According to ChEMBL document CHEMBL5620429, “Discovery of novel thymidylate synthase (TS) inhibitors that influence cancer angiogenesis and metabolic reprogramming in NSCLC cells” (Eur J Med Chem, 2023):
Calls of active or inactive are those of the source.

Key:
[1] = Cytotoxicity against human BEAS-2B cells assessed as reduction in cell viability incubated for 24 hrs by MTT assay; assay type: toxicity, cell-based
[2] = Cytotoxicity against human HLMVEC cells assessed as reduction in cell viability incubated for 24 hrs by MTT assay; assay type: toxicity, cell-based
[3] = system: A549; assay: Induction of apoptosis in human A549 cells assessed as increase in Cleaved-caspase3/Caspase3 ratio at 0.5 to 1.5 uM; assay type: functional, cell-based; settings: dose 0.5-1.5 µM
[4] = system: A549; assay: Anti-angiogenesis activity in human A549 cells assessed as inhibition of VEGF secretion at 1 to 1.5 uM by ELISA analysis; assay type: functional, cell-based; settings: dose 1-1.5 µM
[5] = system: NCI-H1975; assay: Anti-angiogenesis activity in human NCI-H1975 cells assessed as inhibition of VEGF secretion at 1 to 1.5 uM by ELISA analysis; assay type: functional, cell-based; settings: dose 1-1.5 µM
[6] = system: A549; assay: Anti-angiogenic activity against human A549 cells assessed as downregulation of CD26 expression at 0.5 to 1.5 uM by Western blot analysis; assay type: functional, cell-based; settings: dose 0.5-1.5 µM
[7] = system: A549; assay: Anti-angiogenic activity against human A549 cells assessed as downregulation of ET-1 expression at 0.5 to 1.5 uM by Western blot analysis; assay type: functional, cell-based; settings: dose 0.5-1.5 µM
[8] = system: A549; assay: Anti-angiogenic activity against human A549 cells assessed as downregulation of FGF-1 expression at 0.5 to 1.5 uM by Western blot analysis; assay type: functional, cell-based; settings: dose 0.5-1.5 µM
[9] = system: A549; assay: Anti-angiogenic activity against human A549 cells assessed as downregulation of EGF expression at 0.5 to 1.5 uM by Western blot analysis; assay type: functional, cell-based; settings: dose 0.5-1.5 µM
[10] = system: A549; assay: Antitumor activity against human A549 cells xenografted in BALB/c nude mouse assessed as tumor growth inhibition at 80 mg/kg, ip administered once a week for 3 weeks; settings: A549, 504 h, read-out: TGI
[11] = system: NSCLC; assay: Upregulation of INSRR gene expression in human NSCLC cells by PCR array; assay type: functional, cell-based
[12] = system: NSCLC; assay: Upregulation of PGM3 gene expression in human NSCLC cells by PCR array; assay type: functional, cell-based
[13] = system: NSCLC; assay: Upregulation of PCK1 gene expression in human NSCLC cells by PCR array; assay type: functional, cell-based
[14] = system: NSCLC; assay: Upregulation of PDK1 gene expression in human NSCLC cells by PCR array; assay type: functional, cell-based
[15] = system: NSCLC; assay: Upregulation of GSK3B gene expression in human NSCLC cells by PCR array; assay type: functional, cell-based
[16] = system: NSCLC; assay: Upregulation of PGM2 gene expression in human NSCLC cells by PCR array; assay type: functional, cell-based
[17] = system: NSCLC; assay: Upregulation of IDH2 gene expression in human NSCLC cells by PCR array; assay type: functional, cell-based
[18] = system: NSCLC; assay: Upregulation of ALDOC gene expression in human NSCLC cells by PCR array; assay type: functional, cell-based
[19] = system: NSCLC; assay: Upregulation of PYGM gene expression in human NSCLC cells by PCR array; assay type: functional, cell-based
[20] = system: NSCLC; assay: Upregulation of DLST gene expression in human NSCLC cells by PCR array; assay type: functional, cell-based
[21] = system: NSCLC; assay: Upregulation of PDHB gene expression in human NSCLC cells by PCR array; assay type: functional, cell-based
[22] = system: NSCLC; assay: Upregulation of MDH1 gene expression in human NSCLC cells by PCR array; assay type: functional, cell-based
[23] = system: NSCLC; assay: Upregulation of PCK2 gene expression in human NSCLC cells by PCR array; assay type: functional, cell-based
[24] = system: NSCLC; assay: Upregulation of INS gene expression in human NSCLC cells by PCR array; assay type: functional, cell-based
[25] = system: NSCLC; assay: Upregulation of […] gene expression in human NSCLC cells by PCR array; assay type: functional, cell-based
[26] = system: NSCLC; assay: Upregulation of PFKL gene expression in human NSCLC cells by PCR array; assay type: functional, cell-based
[27] = system: NSCLC; assay: Upregulation of FBP2 gene expression in human NSCLC cells by PCR array; assay type: functional, cell-based
[28] = system: NSCLC; assay: Upregulation of PDP2 gene expression in human NSCLC cells by PCR array; assay type: functional, cell-based
[29] = system: NSCLC; assay: Upregulation of FBP1 gene expression in human NSCLC cells by PCR array; assay type: functional, cell-based
[30] = system: NSCLC; assay: Upregulation of ACO2 gene expression in human NSCLC cells by PCR array; assay type: functional, cell-based
[31] = system: NSCLC; assay: Downregulation of GCK gene expression in human NSCLC cells by PCR array; assay type: functional, cell-based
[32] = system: NSCLC; assay: Downregulation of GYS2 gene expression in human NSCLC cells by PCR array; assay type: functional, cell-based
[33] = system: NSCLC; assay: Downregulation of LDHA gene expression in human NSCLC cells by PCR array; assay type: functional, cell-based
[34] = system: NSCLC; assay: Downregulation of G6PC gene expression in human NSCLC cells by PCR array; assay type: functional, cell-based
[35] = system: NSCLC; assay: Downregulation of IDH3G gene expression in human NSCLC cells by PCR array; assay type: functional, cell-based
[36] = system: NSCLC; assay: Downregulation of MDH1B gene expression in human NSCLC cells by PCR array; assay type: functional, cell-based
[37] = system: NSCLC; assay: Downregulation of G6PD gene expression in human NSCLC cells by PCR array; assay type: functional, cell-based
[38] = system: NSCLC; assay: Downregulation of PRPS1 gene expression in human NSCLC cells by PCR array; assay type: functional, cell-based
[39] = system: NSCLC; assay: Downregulation of IDH3B gene expression in human NSCLC cells by PCR array; assay type: functional, cell-based
[40] = system: NSCLC; assay: Downregulation of GBE1 gene expression in human NSCLC cells by PCR array; assay type: functional, cell-based
[41] = system: NSCLC; assay: Downregulation of ENO2 gene expression in human NSCLC cells by PCR array; assay type: functional, cell-based
[42] = system: NSCLC; assay: Downregulation of UGP2 gene expression in human NSCLC cells by PCR array; assay type: functional, cell-based
[43] = system: NSCLC; assay: Downregulation of FH gene expression in human NSCLC cells by PCR array; assay type: functional, cell-based
[44] = system: NSCLC; assay: Downregulation of PYGL gene expression in human NSCLC cells by PCR array; assay type: functional, cell-based
[45] = system: NSCLC; assay: Downregulation of RPIA gene expression in human NSCLC cells by PCR array; assay type: functional, cell-based
[46] = system: NSCLC; assay: Downregulation of PDPR gene expression in human NSCLC cells by PCR array; assay type: functional, cell-based
[47] = system: NSCLC; assay: Downregulation of ACTB gene expression in human NSCLC cells by PCR array; assay type: functional, cell-based
[48] = system: NSCLC; assay: Downregulation of ALDOA gene expression in human NSCLC cells by PCR array; assay type: functional, cell-based
[49] = system: NSCLC; assay: Downregulation of PRPS2 gene expression in human NSCLC cells by PCR array; assay type: functional, cell-based
[50] = system: NSCLC; assay: Downregulation of IDH3A gene expression in human NSCLC cells by PCR array; assay type: functional, cell-based
[51] = system: NSCLC; assay: Downregulation of PGLS gene expression in human NSCLC cells by PCR array; assay type: functional, cell-based
[52] = system: NSCLC; assay: Downregulation of PDK3 gene expression in human NSCLC cells by PCR array; assay type: functional, cell-based
[53] = system: NSCLC; assay: Downregulation of DLAT gene expression in human NSCLC cells by PCR array; assay type: functional, cell-based
[54] = system: NSCLC; assay: Downregulation of SDHB gene expression in human NSCLC cells by PCR array; assay type: functional, cell-based
[55] = system: NSCLC; assay: Downregulation of PGK2 gene expression in human NSCLC cells by PCR array; assay type: functional, cell-based
[56] = system: NSCLC; assay: Downregulation of PHK1 gene expression in human NSCLC cells by PCR array; assay type: functional, cell-based
[57] = system: NSCLC; assay: Downregulation of GPI gene expression in human NSCLC cells by PCR array; assay type: functional, cell-based

Cc1cccc(/C=N/NC(=O)c2cccc(NS(=O)(=O)c3c[nH]c(=O)[nH]c3=O)c2)c1
136 µM: CC50 at 24 h [1]
65%: inhibition in vivo at 80 mg/kg [10]
active: Activity [3] | Activity [4] | Activity [5] | Activity [6] | Activity [7] | Activity [8] | Activity [9] | Activity [11] | Activity [12] | Activity [13] | Activity [14] | Activity [15] | Activity [16] | Activity [17] | Activity [18] | Activity [19] | Activity [20] | Activity [21] | Activity [22] | Activity [23] | Activity [24] | Activity [25] | Activity [26] | Activity [27] | Activity [28] | Activity [29] | Activity [30] | Activity [31] | Activity [32] | Activity [33] | Activity [34] | Activity [35] | Activity [36] | Activity [37] | Activity [38] | Activity [39] | Activity [40] | Activity [41] | Activity [42] | Activity [43] | Activity [44] | Activity [45] | Activity [46] | Activity [47] | Activity [48] | Activity [49] | Activity [50] | Activity [51] | Activity [52] | Activity [53] | Activity [54] | Activity [55] | Activity [56] | Activity [57]
> 600 µM: CC50 at 24 h [2]
